# Data from ChEMBL document CHEMBL5729557, “5-membered heteroaryl carboxamide compounds for treatment of HBV” (2023).
# Assay: Assay Measuring Activity of Test Compounds on Viral Production from HepAD38 Cells: HepAD38 cells grown in a T-150 flask (Corning, cat #: 430825) with Growth Medium (DMEM/F12 (1:1) (Hyclone, cat #: SH30023.02), 1× Pen/Strep (Invitrogen, cat #: 15140-122), 10% FBS (Tissue Culture Biologics, cat #: 101), 250 μg/mL G418 (Alfa Aesar, cat #: J62671), 1 μg/mL Tetracycline (Teknova, cat #: T3320)) were detached with 0.25% trypsin-EDTA to (Invitrogen, cat #: 25200-056). Tetracycline-free treatment medium (15 mL DMEM/F12 (1:1) 1× Pen/step, with 2% FBS, Tet-system approved (Clontech, cat #: 631106) were then added to mix, transferred into a 50 ml conical tube (Falcon, cat #: 21008-918,) and spun at 1300 rpm for 5 min. Pelleted cells were then re-suspended/washed with 50 mL of 1×DPBS (Invitrogen, cat #: 14190-136) 2 times and 50 mL treatment medium twice. HepAD38 cells were then re-suspended with 10 mL of treatment medium, syringed and counted. Wells of 96-well clear bottom TC plate (Corning, cat #: 3904,) were seeded at 50,000 cells/well in 180 μL of treatment medium, and 20 μL of either 10% DMSO (Sigma, cat #: D4540) as controls or a 10× solution of test compounds in 10% DMSO in treatment media was added for a final compound concentration starting at 10 μM, and plates were incubated in 5% CO2 incubator at 37° C. for 5 days.Subsequently viral load production was assayed by quantitative PCR (qPCR) of the HBV core sequence. PCR reaction mixture containing forward primers HBV-f 5′-CTGTGCCTTGGGTGGCTTT-3′ (IDT DNA), Reverse primers HBV-r 5′-[…]-3′ (IDT DNA), Fluorescent TaqMan™ Probes HBV-probe 5′-FAM/AGCTCCAAA/ZEN/[…]/3IABkFQ-3′ (IDT DNA), 10 μL/well of PerfeCTa® qPCR ToughMix® (Quanta Biosciences, Cat #: 95114-05K), and 6 μL/well of DEPC water (Alfa Aesar, cat #: J62087) was prepared. […] of supernatant was added to 16 μL of the reaction mixture in a qPCR plate (Applied Biosytems, Cat #: 4309849), sealed with a film (Applied Biosystems, Cat #: 4311971), centrifuged for a few seconds, and subsequently run on an Applied Biosystems VIIA7. The PCR mixture was incubated at 45° C. for 5 min, then 95° C. for 10 min, followed by 40 cycles of 10 seconds at 95° C. and 20 seconds at 60° C. Viral load was quantified against known HBV DNA standards by using ViiA™ 7 Software. Viral load in the supernatant from wells with treated cells were compared against viral load in supernatant from DMSO control wells (>3 per plate). Cell viability assay was performed with CellTiter-Glo Luminescent Cell Viability Assay (Promega, cat #: G7573) with modification. Mixed appropriate amount of CellTiter-Glo (CTG) 1×DPBS in a 1:1 ratio, added 100 uL of the mixture to each well followed completely removal of all supernatant in each well without touching cell surface. Incubated the plate at room temperature for 10 min on an orbital shaker, and then read the plate with a plate reader (TECAN M1000 or Envision).
# Settings: HePAD38
row,Compound,EC50
1,Cn1nc(C2CC3CC(O)(CSCCN4CCOCC4)CC3C2)c(C(=O)Nc2ccc(F)c(Cl)c2)c1N (stereo not given),< 100 nM
2,CCS(=O)(=O)CC1(O)CC2C[C@@H](c3nn(C)c(N)c3C(=O)Nc3ccc(F)c(Cl)c3)C[C@H]2C1 (stereo not given in full),< 100 nM
3,Cn1cc([C@@H]2CC[C@H](c3nn(C)c(N)c3C(=O)Nc3ccc(F)c(Cl)c3)C2)cn1,< 100 nM
4,COc1cc(-c2cscn2)ccc1C1CCC(c2nn(C)c(N)c2C(=O)Nc2ccc(F)c(Cl)c2)C1 (stereo not given),< 100 nM
5,CC(C)N1CC2CC(c3nn(C)c(N)c3C(=O)Nc3ccc(F)c(Cl)c3)CC2C1 (stereo not given),in the range around 5250 nM
6,Cn1nc(C2CC3CC(N4CCOC4=O)CC3C2)c(C(=O)Nc2ccc(F)c(Cl)c2)c1N (stereo not given),< 100 nM
7,Cn1nc([C@H]2CC3CC(O)(C[S+]([O-])CC(F)(F)F)C[C@H]3C2)c(C(=O)Nc2ccc(F)c(Cl)c2)c1N (stereo not given in full),< 100 nM
8,CCC1OCC2(CC3C[C@H](c4nn(C)c(N)c4C(=O)Nc4ccc(F)c(Cl)c4)C[C@@H]3C2)O1 (stereo not given in full),< 100 nM
9,Cn1nc([C@@H]2CC3CNC(=O)C[C@@H]3C2)c(C(=O)Nc2ccc(F)c(Cl)c2)c1N (stereo not given in full),in the range around 300 nM
10,Cn1nc(C2CC3CC(CC(N)=O)CC3C2)c(C(=O)Nc2ccc(F)c(Cl)c2)c1N (stereo not given),< 100 nM
11,Cn1nc(C2CC3CC(OC(C)(C)C)CC3C2)c(C(=O)Nc2ccc(F)c(Cl)c2)c1N (stereo not given),< 100 nM
12,Cn1nc(C2CC3CSCC3C2)c(C(=O)Nc2ccc(F)c(Cl)c2)c1N (stereo not given),< 100 nM
13,Cn1nc([C@@H]2CC3CC(O)(CS(=O)(=O)CCCN4CCNCC4=O)C[C@@H]3C2)c(C(=O)Nc2ccc(F)c(Cl)c2)c1N (stereo not given in full),in the range around 5250 nM
14,CCC1OCC2(CC3C[C@H](c4nn(C)c(N)c4C(=O)Nc4ccc(F)c(Cl)c4)C[C@H]3C2)O1 (stereo not given in full),< 100 nM
15,Cn1nc(C2CC3CC(O)(CSCCO)CC3C2)c(C(=O)Nc2ccc(F)c(Cl)c2)c1N (stereo not given),< 100 nM
